Results on 32 compounds are retold here after patent US20030095958A1, “Inhibitors of bace” (priority 2001, published 2003).

Some results are limits rather than exact numbers.

For the assay, the target named is BACE (Homo sapiens, UniProt P56817). Nature of the assay: Ki Determination for the Inhibition of BACE (FS-1 peptide fluorescence cleavage assay). It is filed as biochemical. As to conditions: apparent Ki; 50 nM BACE, 10 μM FS-1 substrate, 0.1M sodium acetate pH 4.5. How it is done: Compounds were tested against BACE activity using the following modifications of the method described in J. Ermolieff et al. (2000) Biochemistry 39(51):16263.
Sequence of BACE (P56817 46-501): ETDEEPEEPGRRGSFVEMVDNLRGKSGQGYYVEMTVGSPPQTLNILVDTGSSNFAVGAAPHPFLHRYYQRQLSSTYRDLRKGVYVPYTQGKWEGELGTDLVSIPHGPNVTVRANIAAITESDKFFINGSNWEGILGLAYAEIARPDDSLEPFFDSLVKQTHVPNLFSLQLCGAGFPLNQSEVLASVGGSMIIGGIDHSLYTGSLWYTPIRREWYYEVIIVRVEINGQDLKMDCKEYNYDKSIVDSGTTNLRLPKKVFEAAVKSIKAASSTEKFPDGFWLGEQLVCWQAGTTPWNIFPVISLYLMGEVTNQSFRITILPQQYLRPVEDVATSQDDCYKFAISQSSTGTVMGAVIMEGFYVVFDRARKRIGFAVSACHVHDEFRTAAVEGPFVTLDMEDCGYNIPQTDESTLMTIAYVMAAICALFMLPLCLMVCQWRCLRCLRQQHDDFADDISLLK
All compound evaluations were performed in 0.1M sodium acetate (buffer), pH, 4.5, 10 μM substrate (FS-1 peptide as described in the reference above; this is commercially available), varying concentrations of the test compound or control (DMSO to yeild 2% vol/vol), and 50 nM BACE. The assay volume is 100 μL.
Two microliters of the test compound dissolved in DMSO are added to each well in a 96-well microtiter plate. Seventy eight microliters of BACE are mixed with buffer and added to each well then incubated at room temperature for 15 minutes. A stock solution of 50 μM FS-1 substrate was prepared by addition of an aliquot of FS-1 substrate which was dissolved in DMSO to the buffer and mixed well. The reaction is initiated by addition of 20 μL of the FS-1 mix to the remaining, preincubated assay components. The cleavage reaction of substrate to product is measured using a Molecular Devices fluorescence plate reader with the excitation and emission filter pairs of 355 nm and 495 nm, respectively. Apparent Ki values are determined by fitting the data to the integrated equation for competitive tight binding inhibition.
As to `O=C(Nc1cc(-c2ccccc2Cl)ccc1N1CCNCC1)c1cccc2ccccc12` [Compound 122, Naphthalene-1-carboxylic acid (2′-chloro-4-piperazin-1-yl-biphenyl-3-yl)-amide], the Ki lay in the range of 3 to 30 µM.

On to `COc1cc(NC(=O)c2ccc(COc3ccccc3C(F)(F)F)cc2C2=CCNCC2)cc2ccccc12` [Compound 309, N-(4-Methoxy-naphthalen-2-yl)-2-(1,2,3,6-tetrahydro-pyridin-4-yl)-4-(2-trifluoromethyl-phenoxyraethyl)-benzamide], for which the Ki lay in the range of 3 to 30 µM.

For the compound `O=C(Nc1cc(-c2ccc(O)cc2)c(COc2ccccc2C(F)(F)F)cc1N1CCNCC1)c1nccc2ccccc12` [Compound 186, Isoquinoline-1-carboxylic acid [4′-hydroxy-4-piperazin-1-yl-6-(2-trifluoromethyl-phenoxymethyl)-biphenyl-3-yl]-amide], the Ki is below 3 µM.

On to `O=C(Nc1cc(C(F)(F)F)ccc1N1CCNCC1)c1cccc2cccnc12` [Compound 149, Quinoline-8-carboxylic acid (2-piperazin-1-yl-5-trifluoromethyl-phenyl)-amide], for which the Ki was in the range of 3 to 30 µM.

For the compound `Cc1c(COc2ccc3c(c2)c2c(n3C(=O)c3ccc4ccccc4c3)CNCC2)cccc1C(F)(F)F` [Compound 524, [6-(2-Methyl-3-trifluoromethyl-benzyloxy)-1,2,3,4-tetrahydro-b-carbolin-9-yl]-naphthalen-2-yl-methanone], the Ki is below 3 µM.

For `O=C(Nc1cc(F)c(-c2ccoc2)cc1N1CCNCC1)c1cccc2ccccc12` [Compound 160, Naphthalene-1-carboxylic acid (5-fluoro-4-furan-3-yl-2-piperazin-1-yl-phenyl)-amide], the Ki was 3 to 30 µM.

For the compound `COC(=O)C1CN(c2ccc(-c3ccc(C(F)(F)F)cc3)cc2NCc2ccc3ccccc3c2)CCN1` (centres unmarked) [Compound 192, 4-{3-[(Naphthalen-2-ylmethyl)-amino]-4′-trifluoromethyl-biphenyl-4-yl}-piperazine-2-carboxylic acid methyl ester], the Ki was below 3 µM.

Take `OCc1ccccc1-c1ccc(C2=CCNCC2)c(COc2ccccc2C(F)(F)F)c1` [Compound 378, [4′-(1,2,3,6-Tetrahydro-pyridin-4-yl)-3′-(2-trifluoromethyl-phenoxymethyl)-biphenyl-2-yl]-methanol]: the Ki lay within 3 to 30 µM.

With `O=C(c1cccc2ccccc12)n1c2c(c3cc(OCc4ccccc4I)ccc31)CCNC2` [Compound 528, [6-(2-Iodo-benzyloxy)-1,2,3,4-tetrahydro-b-carbolin-9-yl]-naphthalen-1-yl-methanone], the Ki is below 3 µM.

In the case of `N#Cc1ccccc1-c1ccc(COc2ccc3c(c2)c2c(n3Cc3ccc4ccccc4c3)CNCC2)cc1` [Compound 531, 4′-(9-Naphthalen-2-ylmethyl-2,3,4,9-tetrahydro-1H-b-carbolin-6-yloxymethyl)-biphenyl-2-carbonitrile], the Ki is below 3 µM.

For the compound `O=C(Nc1cc(-c2ccc(Cl)cc2Cl)ccc1N1CCNCC1)c1cccc2ccccc12` [Compound 107, Naphthalene-1-carboxylic acid (2′,4′-dichloro-4-piperazin-1-yl-biphenyl-3-yl)-amide], the Ki is below 3 µM.

For the compound `O=C(C1CNCCC1c1ccc(COc2ccccc2C(F)(F)F)cc1)N1CCc2ccccc2C1` (centres unmarked) [Compound 205, (3,4-Dihydro-1H-isoquinolin-2-yl)-{4-[4-(2-trifluoromethyl-phenoxymethyl)-phenyl]-piperidin-3-yl}-methanone], the Ki is above 30 µM.

For `O=C(OCc1ccc(COc2ccccc2C(F)(F)F)cc1C1=CCNCC1)c1ccccc1C(F)(F)F` [Compound 314, 2-Trifluoromethyl-benzoic acid 2-(1,2,3,6-tetrahydro-pyridin-4-yl)-4-(2-trifluoromethyl-phenoxymethyl)-benzyl ester], the Ki lay in the range of 3 to 30 µM.

Consider `O=C(Nc1ccc(COc2ccccc2C(F)(F)F)cc1N1CCNCC1)c1nccc2ccccc12` [Compound 178, Isoquinoline-1-carboxylic acid [2-piperazin-1-yl-4-(2-trifluoromethyl-phenoxymethyl)-phenyl]-amide], for which the Ki is below 3 µM.

Consider `FC(F)(F)c1ccc(COc2ccc3c(c2)c2c(n3Cc3cccc4ccccc34)CNCC2)cc1` [Compound 533, 9-Naphthalen-1-ylmethyl-6-(4-trifluoromethyl-benzyloxy)-2,3,4,9-tetrahydro-1H-b-carboline], for which the Ki was below 3 µM.

For the compound `CC(C)(C)c1ccc(C(=O)Nc2cc(C(F)(F)F)ccc2N2CCNCC2)cc1` [Compound 117, 4-tert-Butyl-N-(2-piperazin-1-yl-5-trifluoromethyl-phenyl)-benzamide], the Ki is above 30 µM.

`COC(=O)c1cc(C2=CCNCC2)c(COc2ccccc2C(F)(F)F)cc1Br` [Compound 381, 2-Bromo-5-(1,2,3,6-tetrahydro-pyridin-4-yl)-4-(2-trifluoromethyl-phenoxymethyl)-benzoic acid methyl ester]: the Ki was in the range of 3 to 30 µM.

As for `COC(=O)c1cc(C2=CCNCC2)c(COc2ccccc2C(F)(F)F)cc1C1=CCNCC1` [Compound 382, 2,5-Bis-(1,2,3,6-tetrahydro-pyridin-4-yl)-4-(2-trifluoromethyl-phenoxymethyl)-benzoic acid methyl ester], the Ki lay within 3 to 30 µM.

On to `O=S(=O)(Nc1cc(-c2ccc(Cl)c(Cl)c2)ccc1N1CCNCC1)c1ccc(-c2ccc(Cl)cc2)cc1` [Compound 181, 4′-Chloro-biphenyl-4-sulfonic acid (3′,4′-dichloro-4-piperazin-1-yl-biphenyl-3-yl)-amide], for which the Ki lay within 3 to 30 µM.

Take `CCN(CC)S(=O)(=O)c1ccc(-c2ccc(N3CCNCC3)c(NC(=O)c3cccc4ccccc34)c2)cc1` [Compound 145, Naphthalene-1-carboxylic acid (4′-diethylsulfamoyl-4-piperazin-1-yl-biphenyl-3-yl)-amide]: the Ki lay in the range of 3 to 30 µM.

On to `FC(F)(F)c1ccccc1OCc1cccc(COc2ccccc2C(F)(F)F)c1C1=CCNCC1` [Compound 304, 4-[2,6-Bis-(2-trifluoromethyl-phenoxymethyl)-phenyl]-1,2,3,6-tetrahydro-pyridine], for which the Ki is below 3 µM.

In the case of `O=C(Nc1cc(Br)cc(COc2ccccc2C(F)(F)F)c1N1CCNCC1)c1nccc2ccccc12` [Compound 176, Isoquinoline-1-carboxylic acid [5-bromo-2-piperazin-1-yl-3-(2-trifluoromethyl-phenoxymethyl)-phenyl]-amide], the Ki was below 3 µM.

With `O=C(NC(Cc1c[nH]c2ccccc12)C(=O)N1CCCC1C(=O)NCC1CNCCC1c1ccc(COc2ccccc2C(F)(F)F)cc1)OCC1c2ccccc2-c2ccccc21` (centres unmarked) [Compound 230, {1-(1H-Indol-3-ylmethyl)-2-oxo-2-[2-{{4-[4-(2-trifluoromethyl-phenoxymethyl)-phenyl]-piperidin-3-ylmethyl}-carbamoyl)-pyrrolidin-1-yl]-ethyl}-carbamic acid 9H-fluoren-9-ylmethyl ester], the Ki was below 3 µM.

`O=C(OCc1ccc(COc2ccccc2C(F)(F)F)cc1C1=CCNCC1)c1cccc2ccccc12` [Compound 312, Naphthalene-1-carboxylic acid 2-(1,2,3,6-tetrahydro-pyridin-4-yl)-4-(2-trifluoromethyl-phenoxymethyl)-benzyl ester]: the Ki is below 3 µM.

For `CC(NC(=O)C1CNCCC1c1ccc(-c2ccccc2)cc1)c1cccc2ccccc12` (centres unmarked) [Compound 404], the Ki fell in the range of 3 to 30 µM.

For the compound `O=C(Nc1cc(-c2cc(Cl)cc(Cl)c2Cl)ccc1N1CCNCC1)c1cccc2ccccc12` [Compound 109, Naphthalene-1-carboxylic acid (2′,3′,5′-trichloro-4-piperazin-1-yl-biphenyl-3-yl)-amide], the Ki is below 3 µM.

With `FC(F)(F)c1ccc(COc2ccc3c(c2)c2c(n3Cc3ccc4ccccc4c3)CNCC2)cc1` [Compound 534, 9-Naphthalen-2-ylmethyl-6-(4-trifluoromethyl-benzyloxy)-2,3,4,9-tetrahydro-1H-b-carboline], the Ki is below 3 µM.

Regarding `O=C(Nc1cc(C(F)(F)F)ccc1N1CCCNCC1)c1cccc2ccccc12` [Compound 201, Naphthalene-1-carboxylic acid (2-[1,4]diazepan-1-yl-5-trifluoromethyl-phenyl)-amide], the Ki was above 30 µM.

For the compound `O=C(Nc1cc(F)c(-c2ccc(Cl)c(Cl)c2)cc1N1CCNCC1)c1cccc2ccccc12` [Compound 175, Naphthalene-1-carboxylic acid (3′,4′-dichloro-2-fluoro-5-piperazin-1-yl-biphenyl-4-yl)-amide], the Ki is below 3 µM.

Consider `O=C(Nc1cc(-c2ccc(S(=O)(=O)NC3CCCCC3)cc2)ccc1N1CCNCC1)c1cccc2ccccc12` [Compound 147, Naphthalene-1-carboxylic acid (4′-cyclohexylsulfamoyl-4-piperazin-1-yl-biphenyl-3-yl)-amide], for which the Ki was below 3 µM.

Take `FC(F)(F)c1ccccc1OCc1cc(C2=CCNCC2)c(COc2ccccc2C(F)(F)F)cc1C1=CCNCC1` [Compound 334, 4-[4-(1,2,3,6-Tetrahydro-pyridin-4-yl)-2,5-bis-(2-trifluoromethyl-phenoxymethyl)-phenyl]-1,2,3,6-tetrahydro-pyridine]: the Ki fell in the range of 3 to 30 µM.

As for `O=C(Nc1cc(C(F)(F)F)c(-c2cc(Cl)ccc2Cl)cc1N1CCNCC1)c1cccc2ccccc12` [Compound 169, Naphthalene-1-carboxylic acid (2′,5′-dichloro-5-piperazin-1-yl-2-trifluoromethyl-biphenyl-4-yl)-amide], the Ki is below 3 µM.
